Reference: the supplement of paper PMC10307832

Tests used:
Assay in all cases: relative viability (nuclei count vs DMSO), 5 days (fraction); higher = more cells survive
EMC-BAC-2 = system: EMC-BAC-2
In short: (§1)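 Lung cancer cell lines, seeded in 1536-well plates, were treated the following day by pin tool with a single drug or with five library-drug doses (not always all listed) in √10 steps on top of a fixed anchor-drug dose. Cells were fixed and nuclei stained in one step after 5 days, and nuclei were counted. Relative viability is the nuclei count for treated wells divided by that for vehicle wells, reported as medians of duplicate plates.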

EPLC-272H = system: EPLC-272H
In short: as §1

H3255 = system: H3255
In short: as §1

HOP-62 = system: HOP-62
In short: as §1

LCLC-97TM1 = system: LCLC-97TM1
In short: as §1

LXF-289 = system: LXF-289
In short: as §1

NCI-H1563 = system: NCI-H1563
In short: as §1

NCI-H1734 = system: NCI-H1734
In short: as §1

NCI-H1915 = system: NCI-H1915
In short: as §1

NCI-H1993 = system: NCI-H1993
In short: as §1

NCI-H2009 = system: NCI-H2009
In short: as §1

NCI-H2023 = system: NCI-H2023
In short: as §1

NCI-H2085 = system: NCI-H2085
In short: as §1

NCI-H2126 = system: NCI-H2126
In short: as §1

NCI-H2347 = system: NCI-H2347
In short: as §1

NCI-H322M = system: NCI-H322M
In short: as §1

NCI-H647 = system: NCI-H647
In short: as §1

NCI-H661 = system: NCI-H661
In short: as §1

NCI-H727 = system: NCI-H727
In short: as §1

PC-14 = system: PC-14
In short: as §1

SK-LU-1 = system: SK-LU-1
In short: as §1

SW 1573 = system: SW 1573
In short: as §1

Q: How did the relative viability (EMC-BAC-2; first compound 0.005 µM) turn out when `Nc1ccn([C@@H]2O[C@H](CO)[C@@H](O)[C@@H]2O)c(=O)n1` [Cytarabine] + CS(=O)(=O)N1CCN(Cc2cc3nc(-c4cccc5[nH]ncc45)nc(N4CCOCC4)c3s2)CC1 [Pictilisib] (partner 1 µM) was run?
A: 0.42

Q: What about the relative viability (EMC-BAC-2; first compound 0.01581 µM) of the same compound?
A: 0.494

Q: What about the relative viability (EMC-BAC-2; first compound 0.05 µM) of the same compound?
A: 0.366

Q: What about the relative viability (EMC-BAC-2; first compound 0.1581 µM) of the same compound?
A: 0.246

Q: And the relative viability (EMC-BAC-2; first compound 0.5 µM)?
A: 0.165

Q: And the relative viability (EPLC-272H; first compound 0.005 µM)?
A: 0.246

Q: What about the relative viability (EPLC-272H; first compound 0.01581 µM) of the same compound?
A: 0.297

Q: What about the relative viability (EPLC-272H; first compound 0.05 µM) of the same compound?
A: 0.242

Q: And the relative viability (EPLC-272H; first compound 0.1581 µM)?
A: 0.187

Q: And the relative viability (EPLC-272H; first compound 0.5 µM)?
A: 0.207

Q: What about the relative viability (H3255; first compound 0.005 µM) of the same compound?
A: 0.438

Q: What about the relative viability (H3255; first compound 0.01581 µM) of the same compound?
A: 0.446

Q: And the relative viability (H3255; first compound 0.05 µM)?
A: 0.403

Q: And the relative viability (H3255; first compound 0.1581 µM)?
A: 0.294

Q: And the relative viability (H3255; first compound 0.5 µM)?
A: 0.303

Q: What about the relative viability (HOP-62; first compound 0.005 µM) of the same compound?
A: 0.741

Q: And the relative viability (HOP-62; first compound 0.01581 µM)?
A: 0.469

Q: What about the relative viability (HOP-62; first compound 0.05 µM) of the same compound?
A: 0.315

Q: What about the relative viability (HOP-62; first compound 0.1581 µM) of the same compound?
A: 0.118

Q: What about the relative viability (HOP-62; first compound 0.5 µM) of the same compound?
A: 0.0794

Q: What about the relative viability (LCLC-97TM1; first compound 0.005 µM) of the same compound?
A: 0.207

Q: What about the relative viability (LCLC-97TM1; first compound 0.01581 µM) of the same compound?
A: 0.177

Q: What about the relative viability (LCLC-97TM1; first compound 0.05 µM) of the same compound?
A: 0.0754

Q: And the relative viability (LCLC-97TM1; first compound 0.1581 µM)?
A: 0.124

Q: What about the relative viability (LCLC-97TM1; first compound 0.5 µM) of the same compound?
A: 0.108

Q: What about the relative viability (LXF-289; first compound 0.005 µM) of the same compound?
A: 0.716

Q: What about the relative viability (LXF-289; first compound 0.01581 µM) of the same compound?
A: 0.752

Q: And the relative viability (LXF-289; first compound 0.05 µM)?
A: 0.679

Q: What about the relative viability (LXF-289; first compound 0.1581 µM) of the same compound?
A: 0.288

Q: And the relative viability (LXF-289; first compound 0.5 µM)?
A: 0.304

Q: And the relative viability (NCI-H1563; first compound 0.005 µM)?
A: 0.595

Q: And the relative viability (NCI-H1563; first compound 0.01581 µM)?
A: 0.649

Q: What about the relative viability (NCI-H1563; first compound 0.05 µM) of the same compound?
A: 0.657

Q: What about the relative viability (NCI-H1563; first compound 0.1581 µM) of the same compound?
A: 0.589

Q: And the relative viability (NCI-H1563; first compound 0.5 µM)?
A: 0.6

Q: And the relative viability (NCI-H1734; first compound 0.005 µM)?
A: 0.365

Q: And the relative viability (NCI-H1734; first compound 0.01581 µM)?
A: 0.217

Q: And the relative viability (NCI-H1734; first compound 0.05 µM)?
A: 0.213

Q: And the relative viability (NCI-H1734; first compound 0.1581 µM)?
A: 0.147

Q: And the relative viability (NCI-H1734; first compound 0.5 µM)?
A: 0.118

Q: And the relative viability (NCI-H1915; first compound 0.005 µM)?
A: 0.866

Q: And the relative viability (NCI-H1915; first compound 0.01581 µM)?
A: 0.853

Q: And the relative viability (NCI-H1915; first compound 0.05 µM)?
A: 0.589

Q: What about the relative viability (NCI-H1915; first compound 0.1581 µM) of the same compound?
A: 0.274

Q: What about the relative viability (NCI-H1915; first compound 0.5 µM) of the same compound?
A: 0.233

Q: What about the relative viability (NCI-H1993; first compound 0.005 µM) of the same compound?
A: 0.84

Q: And the relative viability (NCI-H1993; first compound 0.01581 µM)?
A: 0.815

Q: What about the relative viability (NCI-H1993; first compound 0.05 µM) of the same compound?
A: 0.765

Q: And the relative viability (NCI-H1993; first compound 0.1581 µM)?
A: 0.712

Q: And the relative viability (NCI-H1993; first compound 0.5 µM)?
A: 0.525

Q: What about the relative viability (NCI-H2009; first compound 0.005 µM) of the same compound?
A: 0.907

Q: What about the relative viability (NCI-H2009; first compound 0.01581 µM) of the same compound?
A: 0.678

Q: What about the relative viability (NCI-H2009; first compound 0.05 µM) of the same compound?
A: 0.81

Q: And the relative viability (NCI-H2009; first compound 0.1581 µM)?
A: 0.487

Q: What about the relative viability (NCI-H2009; first compound 0.5 µM) of the same compound?
A: 0.224

Q: And the relative viability (NCI-H2023; first compound 0.005 µM)?
A: 0.193

Q: And the relative viability (NCI-H2023; first compound 0.01581 µM)?
A: 0.137

Q: What about the relative viability (NCI-H2023; first compound 0.05 µM) of the same compound?
A: 0.112

Q: What about the relative viability (NCI-H2023; first compound 0.1581 µM) of the same compound?
A: 0.0708

Q: What about the relative viability (NCI-H2023; first compound 0.5 µM) of the same compound?
A: 0.0698

Q: What about the relative viability (NCI-H2085; first compound 0.005 µM) of the same compound?
A: 0.422

Q: And the relative viability (NCI-H2085; first compound 0.01581 µM)?
A: 0.433

Q: What about the relative viability (NCI-H2085; first compound 0.05 µM) of the same compound?
A: 0.401

Q: And the relative viability (NCI-H2085; first compound 0.1581 µM)?
A: 0.367

Q: And the relative viability (NCI-H2085; first compound 0.5 µM)?
A: 0.281

Q: And the relative viability (NCI-H2126; first compound 0.005 µM)?
A: 0.441

Q: What about the relative viability (NCI-H2126; first compound 0.01581 µM) of the same compound?
A: 0.432

Q: And the relative viability (NCI-H2126; first compound 0.05 µM)?
A: 0.382

Q: What about the relative viability (NCI-H2126; first compound 0.1581 µM) of the same compound?
A: 0.312

Q: What about the relative viability (NCI-H2126; first compound 0.5 µM) of the same compound?
A: 0.29

Q: And the relative viability (NCI-H2347; first compound 0.005 µM)?
A: 0.536

Q: What about the relative viability (NCI-H2347; first compound 0.01581 µM) of the same compound?
A: 0.811

Q: And the relative viability (NCI-H2347; first compound 0.05 µM)?
A: 0.778

Q: And the relative viability (NCI-H2347; first compound 0.1581 µM)?
A: 0.482

Q: And the relative viability (NCI-H2347; first compound 0.5 µM)?
A: 0.588

Q: And the relative viability (NCI-H322M; first compound 0.005 µM)?
A: 0.443

Q: What about the relative viability (NCI-H322M; first compound 0.01581 µM) of the same compound?
A: 0.492

Q: What about the relative viability (NCI-H322M; first compound 0.05 µM) of the same compound?
A: 0.368

Q: And the relative viability (NCI-H322M; first compound 0.1581 µM)?
A: 0.279

Q: And the relative viability (NCI-H322M; first compound 0.5 µM)?
A: 0.308

Q: What about the relative viability (NCI-H647; first compound 0.005 µM) of the same compound?
A: 0.39

Q: And the relative viability (NCI-H647; first compound 0.01581 µM)?
A: 0.212

Q: What about the relative viability (NCI-H647; first compound 0.05 µM) of the same compound?
A: 0.159

Q: What about the relative viability (NCI-H647; first compound 0.1581 µM) of the same compound?
A: 0.0808

Q: What about the relative viability (NCI-H647; first compound 0.5 µM) of the same compound?
A: 0.0843

Q: What about the relative viability (NCI-H661; first compound 0.005 µM) of the same compound?
A: 0.411

Q: And the relative viability (NCI-H661; first compound 0.01581 µM)?
A: 0.323

Q: What about the relative viability (NCI-H661; first compound 0.05 µM) of the same compound?
A: 0.217

Q: What about the relative viability (NCI-H661; first compound 0.1581 µM) of the same compound?
A: 0.284

Q: And the relative viability (NCI-H661; first compound 0.5 µM)?
A: 0.222

Q: And the relative viability (NCI-H727; first compound 0.005 µM)?
A: 0.45

Q: And the relative viability (NCI-H727; first compound 0.01581 µM)?
A: 0.237

Q: What about the relative viability (NCI-H727; first compound 0.05 µM) of the same compound?
A: 0.211

Q: What about the relative viability (NCI-H727; first compound 0.1581 µM) of the same compound?
A: 0.222

Q: And the relative viability (NCI-H727; first compound 0.5 µM)?
A: 0.203

Q: What about the relative viability (PC-14; first compound 0.01581 µM) of the same compound?
A: 0.698

Q: What about the relative viability (PC-14; first compound 0.05 µM) of the same compound?
A: 0.49

Q: And the relative viability (PC-14; first compound 0.5 µM)?
A: 0.126

Q: What about the relative viability (SK-LU-1; first compound 0.005 µM) of the same compound?
A: 0.519

Q: What about the relative viability (SK-LU-1; first compound 0.01581 µM) of the same compound?
A: 0.515

Q: What about the relative viability (SK-LU-1; first compound 0.05 µM) of the same compound?
A: 0.333

Q: What about the relative viability (SK-LU-1; first compound 0.1581 µM) of the same compound?
A: 0.216

Q: What about the relative viability (SK-LU-1; first compound 0.5 µM) of the same compound?
A: 0.216

Q: And the relative viability (SW 1573; first compound 0.005 µM)?
A: 0.362

Q: And the relative viability (SW 1573; first compound 0.01581 µM)?
A: 0.378

Q: What about the relative viability (SW 1573; first compound 0.05 µM) of the same compound?
A: 0.317

Q: And the relative viability (SW 1573; first compound 0.1581 µM)?
A: 0.134

Q: And the relative viability (SW 1573; first compound 0.5 µM)?
A: 0.106
